These are literature values, as cited in patent US6043366A (priority 1997, dated 2000).

One series concerns LC 132 receptor. The following applies: cells in culture.

Turning to “OFQ: seventeen amino-acid-long peptide (F-G-G-F-T-G-A-R-K-S-A-R-K-L-A-N-Q), isolated from rat brain, natural ligand to the G-protein coupled receptor OFQ-R (FGGFTGARKSARKLANQ; Nociceptin; UniProt Q13519 130-146, looked up)”, in the series on mice (administered intra-cerebroventricularly to mice), the hyperalgesia entry is recorded as “induces hyperalgesia”. The locomotive activity entry in the series on mice (injected intra-cerebroventricularly in mice) is “slowed down locomotive activity”. The “adenylate cyclase in CHO(LC 132+) cells” value with LC 132 receptor was “inhibits adenylate cyclase”.
